Experimental findings from ChEMBL document CHEMBL3352346, “Optimization of sphingosine-1-phosphate-1 receptor agonists: effects of acidic, basic, and zwitterionic chemotypes on pharmacokinetic and pharmacodynamic profiles” (J Med Chem, 2014) are described below.

A value given as a limit tells only on which side of the number the result lay.

In general, EC50 refers to the concentration needed to bring the measured effect to its halfway point. In general, IC50 refers to the concentration that gives 50% inhibition. A higher IC50 goes with a need for much substance. In general, bioavailability refers to dose-corrected exposure relative to a reference, in per cent. Low readings indicate little systemic uptake, high ones much systemic uptake. In general, pKa refers to the pH at which an ionisable group is half protonated. Read a high pKa as a weaker acid or stronger base. As usually defined, the fraction unbound is the share of the substance not bound to proteins or other matrix. Higher therefore signals weak binding. As a reminder, the inhibition in vivo is how much of the control response was suppressed. A higher inhibition in vivo goes with strong suppression. What is called half-life is the time in which the quantity being followed falls by half. A lower half-life goes with fast loss.

For data set [1], the target named is Sphingosine 1-phosphate receptor 3 (Homo sapiens, UniProt Q99500). Kind of data set: Agonist activity at human S1P3R expressed in RBL membranes assessed as [35S]GTPgammaS binding after 30 mins. In kind it is functional, cell membranes. On the technique in general: Binding of GTPγS marks nucleotide exchange on a G protein.
Sphingosine 1-phosphate receptor 3, sequence (Q99500 whole entry): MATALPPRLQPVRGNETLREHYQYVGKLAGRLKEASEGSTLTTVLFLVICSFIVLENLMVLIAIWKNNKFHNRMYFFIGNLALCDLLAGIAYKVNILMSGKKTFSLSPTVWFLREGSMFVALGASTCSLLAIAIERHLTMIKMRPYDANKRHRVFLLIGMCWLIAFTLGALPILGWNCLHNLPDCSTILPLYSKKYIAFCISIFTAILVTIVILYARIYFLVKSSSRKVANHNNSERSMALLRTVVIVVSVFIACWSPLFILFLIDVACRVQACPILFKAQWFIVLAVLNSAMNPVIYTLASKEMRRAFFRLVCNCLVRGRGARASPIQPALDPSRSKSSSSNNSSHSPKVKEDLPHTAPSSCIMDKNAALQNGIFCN
The test system of data set [2] is Rattus norvegicus. Briefly: Reduction in lymphocyte level in po dosed male Lewis rat. It counts as functional, organism-based.
Data set [3] is described as follows: (§1) Oral bioavailability in CD rat at 3 mg/kg using Methylcellulose(aq), 1% (w/v) suspension. The following applies: CD, in vivo. In kind it is ADME, organism-based.
The nature of data set [4]: (§2) Volume of distribution at steady state in Beagle dog at 1 mg/kg, iv or 2 mg/kg, po using DMSO/10%(w/v) Kleptose, 0.9% saline(aq) (2%/98%). It counts as ADME, organism-based, Canis lupus familiaris. The following applies: beagle, in vivo, read-out: Vdss.
Data set [5] can be described thus: Dissociation constant, pKa of the compound. In kind it is physicochemical.
The next data set addresses Cytochrome P450 2C9 (Homo sapiens, UniProt P11712). Briefly: Inhibition of CYP2C9 (unknown origin). In kind it is ADME.
Data set [6] relates to Canis familiaris. Kind of data set: Half life in Beagle dog at 1 mg/kg, iv or 2 mg/kg, po using DMSO/10%(w/v) Kleptose, 0.9% saline(aq) (2%/98%). It counts as ADME, organism-based, Canis lupus familiaris. The following applies: in vivo.
Data set [7] can be described thus: Inhibition of CYP3A4VG (unknown origin). It counts as ADME, Homo sapiens.
The next data set addresses Cytochrome P450 2D6 (Homo sapiens, UniProt P10635). Kind of data set: Inhibition of CYP2D6 (unknown origin). In kind it is ADME.
A short description of data set [8]: Intrinsic clearance in dog hepatocyte. In kind it is ADME, cell-based, Canis lupus familiaris. The following applies: hepatocytes.
Data set [9] in a line: Inhibition of CYP3A4VR (unknown origin). It counts as ADME, Homo sapiens.
Data set [10] is described as follows: (§3) Oral bioavailability in Beagle dog at 2 mg/kg using Methylcellulose(aq), 1% (w/v) suspension. It counts as ADME, organism-based, Canis lupus familiaris. As to conditions: beagle, in vivo.
The nature of data set [11]: Clearance in CD rat at 1 mg/kg, iv or 3 mg/kg, po using DMSO/10%(w/v) Kleptose, 0.9% saline(aq) (2%/98%). It counts as ADME, organism-based. The following applies: in vivo.
Data set [12] in a line: Fraction unbound in rat blood. It counts as ADME, tissue-based.
Another data set addresses Cytochrome P450 2C19 (Homo sapiens, UniProt P33261). Kind of data set: Inhibition of CYP2C19 (unknown origin). In kind it is ADME.
Data set [13] has as its system Rattus norvegicus. Kind of data set: Reduction of lymphocyte count in rat at 1 mg/kg, po measured at 2 to 12 hrs relative to control. In kind it is functional.
The nature of data set [14]: Half life in CD rat at 1 mg/kg, iv or 3 mg/kg, po using DMSO/10%(w/v) Kleptose, 0.9% saline(aq) (2%/98%). In kind it is ADME, organism-based. The following applies: in vivo.
Data set [15] can be described thus: Volume of distribution at steady state in CD rat at 1 mg/kg, iv or 3 mg/kg, po using DMSO/10%(w/v) Kleptose, 0.9% saline(aq) (2%/98%). As to conditions: in vivo, read-out: Vdss. In kind it is ADME, organism-based.
Data set [16] concerns the target Sphingosine 1-phosphate receptor 1 (Homo sapiens, UniProt P21453). Briefly: Agonist activity at human S1P1R expressed in RH7777 membranes assessed as [35S]GTPgammaS binding after 30 mins. In kind it is functional, cell membranes.
Data set [17] in a line: Fraction unbound in human blood. In kind it is ADME, tissue-based.
A short description of data set [18]: Fraction unbound in dog blood. It counts as ADME, tissue-based, Canis lupus familiaris.
For another data set, the system named is Hepatocyte. Briefly: Intrinsic clearance in rat hepatocyte. It counts as ADME, cell-based. As to conditions: hepatocytes.
Another data set concerns the target T1, Cytochrome P450 1A2 (Homo sapiens, UniProt P05177).
T1 sequence (P05177 whole entry): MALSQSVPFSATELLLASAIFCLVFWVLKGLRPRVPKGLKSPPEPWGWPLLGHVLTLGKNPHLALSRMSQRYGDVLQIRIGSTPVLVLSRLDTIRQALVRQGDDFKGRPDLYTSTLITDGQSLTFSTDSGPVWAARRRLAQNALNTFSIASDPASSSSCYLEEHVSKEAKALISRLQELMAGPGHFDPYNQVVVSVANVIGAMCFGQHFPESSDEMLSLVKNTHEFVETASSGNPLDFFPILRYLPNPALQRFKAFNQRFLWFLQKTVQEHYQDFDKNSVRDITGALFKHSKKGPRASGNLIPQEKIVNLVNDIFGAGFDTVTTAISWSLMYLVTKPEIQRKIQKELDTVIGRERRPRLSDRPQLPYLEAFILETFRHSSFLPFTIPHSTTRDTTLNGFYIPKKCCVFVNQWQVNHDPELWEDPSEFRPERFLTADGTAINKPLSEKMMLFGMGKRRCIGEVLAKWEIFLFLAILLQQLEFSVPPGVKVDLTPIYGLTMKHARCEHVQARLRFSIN
Kind of data set: Inhibition of CYP1A2 (unknown origin). In kind it is ADME.

Data set [19] is described as follows: Half life in po dosed C57BL/6 mouse at 1 mg/kg, iv using DMSO/1% methylcellulose 1:99 (w/v). Also on record: dose 1 mg/kg, route oral. It counts as ADME, organism-based. The following applies: in vivo.
Another data set relates to Mus musculus. Kind of data set: Volume of distribution at steady state in po dosed C57BL/6 mouse at 1 mg/kg, iv using DMSO/1% methylcellulose 1:99 (w/v). In kind it is ADME, organism-based. Also on record: dose 1 mg/kg, route oral. The following applies: in vivo.
Data set [20] can be described thus: Oral bioavailability in C57BL/6 mouse at 3 mg/kg using DMSO/1% methylcellulose 1:99 (w/v). As to conditions: in vivo. It counts as ADME, organism-based.
For data set [21], the system named is Rattus norvegicus. Described as §1. It counts as ADME, organism-based. As to conditions: in vivo.
Data set [22] concerns Canis familiaris. The description is as §2. It counts as ADME, organism-based, Canis lupus familiaris. The following applies: in vivo.
The nature of data set [23]: Volume of distribution at steady state in CD rat at 1 mg/kg, iv or 3 mg/kg, po using DMSO/10%(w/v) Kleptose, 0.9% saline(aq) (5%/95%). It counts as ADME, organism-based. As to conditions: in vivo, read-out: Vdss.
For data set [24], the system named is Canis familiaris. The data set is described as §3. In kind it is ADME, organism-based, Canis lupus familiaris. As to conditions: in vivo.
A short description of data set [25]: Half life in CD rat at 1 mg/kg, iv or 3 mg/kg, po using DMSO/10%(w/v) Kleptose, 0.9% saline(aq) (5%/95%). In kind it is ADME, organism-based. As to conditions: in vivo.
The nature of data set [26]: Clearance in CD rat at 1 mg/kg, iv or 3 mg/kg, po using DMSO/10%(w/v) Kleptose, 0.9% saline(aq) (5%/95%). It counts as ADME, organism-based. The following applies: in vivo.

Sphingosine 1-phosphate receptor 1, sequence (P21453 whole entry): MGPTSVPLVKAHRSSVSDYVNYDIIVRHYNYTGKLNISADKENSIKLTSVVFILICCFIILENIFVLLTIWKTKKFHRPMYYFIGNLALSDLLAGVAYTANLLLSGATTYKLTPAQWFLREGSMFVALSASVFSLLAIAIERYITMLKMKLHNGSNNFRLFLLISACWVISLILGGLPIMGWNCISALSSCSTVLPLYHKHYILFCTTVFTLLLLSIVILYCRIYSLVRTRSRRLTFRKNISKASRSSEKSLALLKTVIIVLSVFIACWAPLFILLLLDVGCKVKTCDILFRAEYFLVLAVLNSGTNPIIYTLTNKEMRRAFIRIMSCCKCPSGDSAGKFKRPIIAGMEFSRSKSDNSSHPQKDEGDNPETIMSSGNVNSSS
Cytochrome P450 2C9, sequence (P11712 whole entry): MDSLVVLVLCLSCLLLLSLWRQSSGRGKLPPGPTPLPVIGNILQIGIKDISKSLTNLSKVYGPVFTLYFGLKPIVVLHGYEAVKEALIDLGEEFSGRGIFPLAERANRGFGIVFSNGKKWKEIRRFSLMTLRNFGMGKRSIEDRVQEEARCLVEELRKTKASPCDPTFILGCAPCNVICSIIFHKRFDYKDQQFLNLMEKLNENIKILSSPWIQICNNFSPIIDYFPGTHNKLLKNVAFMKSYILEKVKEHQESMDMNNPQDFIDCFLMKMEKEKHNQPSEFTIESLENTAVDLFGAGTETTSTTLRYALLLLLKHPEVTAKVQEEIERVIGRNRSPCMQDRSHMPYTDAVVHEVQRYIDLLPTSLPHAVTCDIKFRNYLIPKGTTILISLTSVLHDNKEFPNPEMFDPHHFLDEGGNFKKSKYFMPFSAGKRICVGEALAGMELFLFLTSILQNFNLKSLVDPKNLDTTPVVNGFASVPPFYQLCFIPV
Cytochrome P450 2D6, sequence (P10635 whole entry): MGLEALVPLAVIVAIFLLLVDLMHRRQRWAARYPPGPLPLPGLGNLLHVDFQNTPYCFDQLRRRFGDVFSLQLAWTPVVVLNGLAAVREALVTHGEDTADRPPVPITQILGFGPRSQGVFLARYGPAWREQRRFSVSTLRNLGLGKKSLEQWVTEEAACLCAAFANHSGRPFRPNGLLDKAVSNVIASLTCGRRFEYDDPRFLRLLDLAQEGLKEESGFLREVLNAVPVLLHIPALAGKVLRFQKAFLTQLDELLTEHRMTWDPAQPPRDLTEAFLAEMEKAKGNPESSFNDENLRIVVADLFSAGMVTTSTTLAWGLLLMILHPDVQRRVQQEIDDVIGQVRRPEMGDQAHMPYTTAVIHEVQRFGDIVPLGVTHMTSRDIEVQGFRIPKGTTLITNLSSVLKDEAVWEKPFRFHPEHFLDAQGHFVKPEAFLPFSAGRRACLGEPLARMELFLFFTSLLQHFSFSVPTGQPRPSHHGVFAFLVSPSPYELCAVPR
Cytochrome P450 2C19, sequence (P33261 whole entry): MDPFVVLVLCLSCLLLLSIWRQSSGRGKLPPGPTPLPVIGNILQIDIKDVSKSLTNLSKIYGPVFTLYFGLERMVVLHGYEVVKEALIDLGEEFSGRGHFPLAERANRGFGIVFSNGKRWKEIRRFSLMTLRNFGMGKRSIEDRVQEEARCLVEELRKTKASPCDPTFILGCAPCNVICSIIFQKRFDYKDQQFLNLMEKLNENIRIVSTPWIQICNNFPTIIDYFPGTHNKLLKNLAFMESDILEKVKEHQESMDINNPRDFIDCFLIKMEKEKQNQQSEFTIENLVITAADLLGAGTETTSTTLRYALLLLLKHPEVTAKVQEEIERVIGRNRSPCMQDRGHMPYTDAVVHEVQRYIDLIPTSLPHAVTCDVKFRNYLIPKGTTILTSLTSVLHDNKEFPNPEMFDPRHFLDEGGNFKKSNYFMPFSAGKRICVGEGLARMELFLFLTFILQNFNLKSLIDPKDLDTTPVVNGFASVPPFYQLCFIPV

Take `CC(C)Oc1ncc(-c2nc(-c3cccc4c3OCCNC4CCCC(=O)O)no2)cc1Cl` (stereo in doubt; 31b): the EC50 is 10 µM in [1] and 0.0501 µM in data set [16]. In addition, the IC50 was 0.099 µM in the data set on Rattus norvegicus [2] (Rattus norvegicus, Lewis); more than 50 µM against Cytochrome P450 2C9; more than 50 µM in data set [7]; more than 50 µM on Cytochrome P450 2D6; more than 50 µM in data set [9]; more than 50 µM on Cytochrome P450 2C19. The compound further showed an IC50 against Cytochrome P450 1A2 of more than 50 µM. Also, the results for the bioavailability in data set [3] and in data set [10] were 78% and 67%, respectively. Moreover, the values for the Vd in data set [4] and in [15] were 0.9 L/kg and 0.4 L/kg, respectively. Moreover, the pKa in data set [5] was 8.09. Also, in the data set on Canis familiaris [6], the t1/2 came out at 1.8 h. Further, the CLH in data set [8] is 1.7 mL/min/g; in the data set on Hepatocyte, less than 0.9 mL/min/g. The compound also came in with a clearance in [11] of 0.71 mL/min/kg. In addition, the values for the fraction unbound in [12], in data set [17] and in data set [18] were 0.004, 0.016 and 0.015, respectively. In the data set with Rattus norvegicus [13], the inhibition in vivo at 1 mg/kg is more than 80%. This compound had a half-life in data set [14] of 6.6 h.
In the case of `CC(C)Oc1ccc(-c2nc(-c3ccc4c(c3)CCNCC4)no2)cc1Cl`, the EC50 in data set [1] is more than 31.6 µM; in data set [16] it was 0.158 µM. The compound also had a half-life in data set [19] of 9.5 h. Moreover, the Vdss with Mus musculus is 7.6 L/kg. In [20], this compound displayed a bioavailability of 59%.
Turning to `CC(C)Oc1ncc(-c2nc(-c3cccc4c3OCCNC4CCCC(=O)O)no2)cc1Cl` (single isomer, unassigned; enantiomer 1), the figures for the EC50 in data set [1] and in data set [16] were 20 µM and 0.0398 µM, respectively. Besides, the IC50 in the data set with Rattus norvegicus [2] is 0.091 µM; against Cytochrome P450 2C9 it was more than 50 µM; on Cytochrome P450 2D6 it was more than 50 µM; at Cytochrome P450 2C19, more than 50 µM; at Cytochrome P450 1A2, more than 50 µM. In addition, the F is recorded as 87% in the data set on Rattus norvegicus [21] and 50% in the data set on Canis familiaris [24]. The compound further returned a Vdss with Canis familiaris [22] of 1.5 L/kg. The compound also registered a t1/2 with Canis familiaris [6] of 0.84 h. The CLH in data set [8] is 4 mL/min/g. Further, the Vd in data set [23] amounted to 0.6 L/kg. Moreover, the half-life in data set [25] was 6.4 h. In data set [26], the clearance was found to be 1.03 mL/min/kg. The Fu in [17] came to 0.014; in [18], 0.01.
